The experiment has as its target T1, Solute carrier family 15 member 2 (Rattus norvegicus) (UniProt Q63424).
T1 sequence (whole entry): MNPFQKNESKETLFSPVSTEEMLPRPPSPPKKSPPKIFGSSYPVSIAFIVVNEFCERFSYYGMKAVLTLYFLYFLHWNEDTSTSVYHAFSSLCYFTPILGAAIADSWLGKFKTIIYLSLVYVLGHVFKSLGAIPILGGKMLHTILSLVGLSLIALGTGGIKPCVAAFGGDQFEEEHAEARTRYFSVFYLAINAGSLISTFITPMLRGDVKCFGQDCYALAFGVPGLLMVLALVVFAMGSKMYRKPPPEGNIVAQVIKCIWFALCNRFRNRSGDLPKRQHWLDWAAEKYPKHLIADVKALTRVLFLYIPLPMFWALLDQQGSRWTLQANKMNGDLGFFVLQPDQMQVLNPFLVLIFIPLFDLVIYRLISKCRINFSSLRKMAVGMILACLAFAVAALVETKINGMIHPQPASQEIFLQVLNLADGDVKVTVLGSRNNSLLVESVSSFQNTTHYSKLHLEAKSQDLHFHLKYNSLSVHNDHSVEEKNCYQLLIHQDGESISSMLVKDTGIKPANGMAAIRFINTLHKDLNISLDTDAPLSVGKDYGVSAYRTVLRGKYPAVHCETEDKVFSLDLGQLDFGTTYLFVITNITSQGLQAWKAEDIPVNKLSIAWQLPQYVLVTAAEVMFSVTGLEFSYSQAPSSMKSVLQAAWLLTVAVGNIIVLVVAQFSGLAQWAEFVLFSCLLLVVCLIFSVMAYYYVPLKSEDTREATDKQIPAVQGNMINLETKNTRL
Put plainly: TP_TRANSPORTER: uptake in Xenopus laevis oocytes. The following applies: Oocyte. Format: functional, cell-based.

For one molecule, Activity results are on record in ChEMBL document CHEMBL2074106, “Molecular cloning and tissue distribution of rat peptide transporter PEPT2” (Biochim Biophys Acta, 1996).

Consider `CC(C)C[C@H](NC(=O)[C@@H](O)[C@H](N)Cc1ccccc1)C(=O)O`, for which the Activity result is “substrate [+]”.
